Source: patent US20120004228A1, “Bis Aromatic Compounds for Use as LTC4 Synthase Inhibitors” (BIOLIPOX AB, priority 2009, published 2012)

Molecular target: T1, Recombinant human LTC4 synthase (Homo sapiens, UniProt Q16873)
T1 construct: made in house; host or cells: Pichia pastoris ('Piccia pastoralis' [sic])
T1 sequence (Q16873 1-150): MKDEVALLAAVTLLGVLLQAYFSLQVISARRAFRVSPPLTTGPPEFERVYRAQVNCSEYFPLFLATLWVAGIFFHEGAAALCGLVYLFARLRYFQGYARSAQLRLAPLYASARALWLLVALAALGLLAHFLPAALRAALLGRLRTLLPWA
Assay: In vitro LTC4 synthase assay (LTA4 to LTC4, HTRF detection)
Type: biochemical
Settings: not given
Procedure: In the assay, LTC4 synthase catalyses the reaction where the substrate LTA4 is converted to LTC4. Recombinant human LTC4 synthase is expressed in Piccia pastoralis and the purified enzyme is dissolved in 25 mM tris-buffer pH 7.8 supplemented with 0.1 mM glutathione (GSH) and stored at −80° C. The assay is performed in phosphate buffered saline (PBS) pH 7.4 and 5 mM GSH in 384-well plates.
The following is added chronologically to each well:
1. 48 μL LTC4 synthase in PBS with 5 mM GSH. The total protein concentration in this solution is 0.5 μg/mL. 2. 1 μL inhibitor in DMSO (final concentration 10 μM). 3. Incubation of the plate at room temperature for 10 min. 4. 1 μL LTA4 (final concentration 2.5 μM). 5. Incubation of the plate at room temperature for 5 min. 6. 10 μL of the incubation mixture is analysed using homogenous time resolved fluorescent (HTRF) detection.

IC50 [nM] | Compound
199 | CC(=O)N(c1ccccc1)c1cc(C(=O)O)cc(C(=O)c2ccc(N(C)c3ccc(Cl)cc3)cn2)c1 [Example 9:23, 3-{5-[(4-Chlorophenyl)(methyl)amino]picolinoyl}-5-(N-phenylacetamido)benzoic acid]
211 | CN(c1ccc(Cl)cc1)c1ccc(C(=O)c2cc(Sc3ccccc3)cc(C(=O)O)c2)nc1 [19:4, 3-{5-[(4-Chlorophenyl)(methyl)amino]picolinoyl}-5-phenylsulfanylbenzoic acid]
584 | CN(c1ccc(Cl)cc1)c1ccc(C(=O)c2cc(OCc3ccc4c(c3)OCO4)cc(C(=O)O)c2)nc1 [11:5, 3-{5-[(4-Chlorophenyl)(methyl)amino]picolinoyl}-5-(3,4-methylenedioxy-benzyloxy)benzoic acid]
1550 | CN(c1ccc(Cl)cc1)c1ccc(C(=O)c2cc(C(=O)O)cc(N(C)c3cccnc3)c2)nc1 [9:42, 3-{5-[(4-Chlorophenyl)(methyl)amino]picolinoyl}-5-[methyl(3-pyridyl)amino]-benzoic acid]
122 | CN(c1ccc(Cl)cc1)c1ccc(C(=O)c2cc(C(=O)O)cc(N(CCC3OCCO3)c3ccccc3)c2)nc1 [9:46, 3-{[2-(1,3-Dioxolan-2-yl)ethyl](phenyl)amino}-5-{5-[(4-chlorophenyl)(methyl)-amino]picolinoyl}benzoic acid]
210 | CN(c1ccc(Cl)cc1)c1ccc(C(=O)c2cc(Nc3cc(F)ccc3F)cc(C(=O)O)c2)cc1 [10:5, 3-{4-[(4-Chlorophenyl)(methyl)amino]benzoyl}-5-(2,5-difluorophenylamino)-benzoic acid]
74 | COCCN(c1ccccc1)c1cc(C(=O)O)cc(C(=O)c2ccc(N(C)c3ccc(Cl)cc3)cc2)c1 [10:26, 3-{4-[(4-Chlorophenyl)(methyl)amino]benzoyl}-5-[(2-methoxyethyl)(phenyl)-amino]benzoic acid]
887 | COc1ccc(COc2cc(C(=O)O)cc(C(=O)c3ccc(N(C)c4ccc(Cl)cc4)cn3)c2)cc1 [Example 11:1, 3-{5-[(4-Chlorophenyl)(methyl)aminol]picolinoyl}-5-(4-methoxybenzyloxy)benzoic acid]
298 | CN(c1ccc(Cl)cc1)c1ccc(C(=O)c2cc(Cc3ccccc3)cc(C(=O)O)c2)nc1 [Example 13, 3-Benzyl-5-{5-[(4-chlorophenyl)(methyl)amino]picolinoyl}benzoic acid]
362 | CN(c1ccc(Cl)cc1)c1ccc(C(=O)c2cc(C(=O)O)cc(N(CCCCO)c3ccccn3)c2)nc1 [9:40, 3-{5-[(4-Chlorophenyl)(methyl)amino]picolinoyl}-5-[(4-hydroxybutyl)(2-pyridyl)-amino]benzoic acid]
32 | CN(c1ccc(Cl)cc1)c1ccc(C(=O)c2cc(C(=O)O)cc(N(CC3CC3)c3ccccc3)c2)nc1 [Example 9:7, 3-{5-[(4-Chlorophenyl)(methyl)amino]picolinoyl}-5-[(cyclopropylmethyl)(phenyl)-amino]benzoic acid]
252 | CN(c1ccc(Cl)cc1)c1ccc(C(=O)c2cc(C(=O)O)cc(N(CCCC(F)(F)F)c3ccccc3)c2)cc1 [10:37, 3-{4-[(4-Chlorophenyl)(methyl)amino]benzoyl}-5-[phenyl(4,4,4-trifluorobutyl)-amino]benzoic acid]
197 | CN(c1ccc(Cl)cc1)c1ccc(C(=O)c2cc(C(=O)O)cc(N(C)c3ccc4c(c3)OCO4)c2)nc1 [9:30, 3-{5-[(4-Chlorophenyl)(methyl)amino]picolinoyl}-5-[(3,4-methylenedioxy-phenyl)(methyl)amino]benzoic acid]
125 | CN(c1ccc(Cl)cc1)c1ccc(C(=O)c2cc(Nc3ccc(C(F)(F)F)cc3Cl)cc(C(=O)O)c2)cc1 [10:11, 3-[2-Chloro-4-(trifluoromethyl)phenylamino]-5-{4-[(4-chlorophenyl)(methyl)-amino]benzoyl}benzoic acid]
625 | O=C(O)c1cc(Nc2ccc(Cl)cc2)ccc1C(=O)c1ccc(Nc2ccc(Cl)cc2)cc1 [Example 6:1, 5-(4-Chlorophenylamino)-2-[4-(4-chlorophenylamino)benzoyl]benzoic acid]
248 | CN(c1ccc(Cl)cc1)c1ccc(C(=O)c2cc(Nc3cccc(Cl)c3)cc(C(=O)O)c2)nc1 [Example 9:2, 3-{5-[(4-Chlorophenyl)(methyl)amino]picolinoyl}-5-(3-chlorophenylamino)-benzoic acid]

The next lines start with the molecule.

Compound | IC50 [nM]
COc1cccc(Oc2cc(C(=O)O)cc(C(=O)c3ccc(N(C)c4ccc(Cl)cc4)cc3)c2)c1 [8:14, 3-{4-[(4-Chlorophenyl)(methyl)amino]benzoyl}-5-(3-methoxyphenoxy)benzoic acid] | 143
CN(c1ccc(Cl)cc1)c1ccc(C(=O)c2cc(C(=O)O)cc(N(C)c3ccc(Cl)cc3)c2)nc1 [9:3, 3-[(4-Chlorophenyl)(methyl)amino]-5-{5-[(4-chlorophenyl)(methyl)amino]-picolinoyl}benzoic acid] | 45
CN(c1ccc(Cl)cc1)c1ccc(C(=O)c2cc(Nc3ccccc3Cl)cc(C(=O)O)c2)nc1 [9:5, 3-{5-[(4-Chlorophenyl)(methyl)amino]picolinoyl}-5-(2-chlorophenylamino)-benzoic acid] | 160
CN(c1ccc(Cl)cc1)c1ccc(C(=O)c2cc(Oc3ccc(C(C)(C)C)cc3)cc(C(=O)O)c2)cc1 [8:16, 3-(4-tert-Butylphenoxy)-5-{4-[(4-chlorophenyl)(methyl)amino]benzoyl}benzoic acid] | 159
CN(c1ccc(Cl)cc1)c1ccc(C(=O)c2cc(C(=O)O)cc(C(=O)Nc3cccc(Cl)c3)c2)nc1 [2:4, 3-{5-[(4-Chlorophenyl)(methyl)amino]picolinoyl}-5-(3-chlorophenyl-carbamoyl)-benzoic acid] | 390
COc1ccccc1N(C)c1cc(C(=O)O)cc(C(=O)c2ccc(N(C)c3ccc(Cl)cc3)cn2)c1 [9:22, 3-{5-[(4-Chlorophenyl)(methyl)amino]picolinoyl}-5-[(2-methoxyphenyl)(methyl)-amino]benzoic acid] | 366
CN(c1ccc(Cl)cc1)c1ccc(C(=O)c2cc(C(=O)O)cc(C(=O)Nc3ccccc3OC(F)F)c2)cc1 [2:13, 3-{4-[(4-Chlorophenyl)(methyl)amino]benzoyl}-5-[2-(difluoromethoxy)phenyl-carbamoyl]benzoic acid] | 706
CN(c1ccc(Cl)cc1)c1ccc(C(=O)c2cc(C(=O)O)cc(C(=O)Nc3ccc4c(c3)OC(F)(F)O4)c2)cc1 [2:12, 3-{4-[(4-Chlorophenyl)(methyl)amino]benzoyl}-5-[3,4-(difluoromethylene-dioxy)phenylcarbamoyl]benzoic acid] | 424
CN(c1ccc(Cl)cc1)c1ccc(C(=O)c2cc(Nc3ccc(Cl)cc3)cc(C(=O)O)c2)nc1 [9:4, 3-{5-[(4-Chlorophenyl)(methyl)amino]picolinoyl}-5-(4-chlorophenylamino)-benzoic acid] | 70
COc1ccccc1Oc1cc(C(=O)O)cc(C(=O)c2ccc(N(C)c3ccc(Cl)cc3)cn2)c1 [8:4, 3-{5-[(4-Chlorophenyl)(methyl)amino]picolinoyl}-5-(2-methoxyphenoxy)benzoic acid] | 525
CN(c1ccc(Cl)cc1)c1ccc(C(=O)c2cc(C(=O)O)cc(C(=O)Nc3ccccc3Cl)c2)nc1 [2:2, 3-{5-[(4-Chlorophenyl)(methyl)amino]picolinoyl}-5-(2-chlorophenyl-carbamoyl)-benzoic acid] | 538
Cc1ccccc1Oc1cc(C(=O)O)cc(C(=O)c2ccc(N(C)c3ccc(Cl)cc3)cc2)c1 [8:17, 3-{4-[(4-Chlorophenyl)(methyl)amino]benzoyl}-5-(o-tolyloxy)benzoic acid] | 198
CN(c1ccc(Cl)cc1)c1ccc(C(=O)c2cc(Oc3ccc(Cl)cc3)cc(C(=O)O)c2)nc1 [8:5, 3-(4-Chlorophenoxy)-5-{5-[(4-chlorophenyl)(methyl)amino]picolinoyl}benzoic acid] | 76
COc1cccc(N(C)c2cc(C(=O)O)cc(C(=O)c3ccc(N(C)c4ccc(Cl)cc4)cn3)c2)c1 [9:21, 3-{5-[(4-Chlorophenyl)(methyl)amino]picolinoyl}-5-[(3-methoxyphenyl)(methyl)-amino]benzoic acid] | 274
CN(Cc1ccc2c(c1)OCO2)c1cc(C(=O)O)cc(C(=O)c2ccc(N(C)c3ccc(Cl)cc3)cn2)c1 [9:14, 3-{5-[(4-Chlorophenyl)(methyl)amino]picolinoyl}-5-[(3,4-methylenedioxy-benzyl)(methyl)amino]benzoic acid] | 103
Cc1ccc(Oc2cc(C(=O)O)cc(C(=O)c3ccc(N(C)c4ccc(Cl)cc4)cn3)c2)cc1 [8:6, 3-{5-[(4-Chlorophenyl)(methyl)amino]picolinoyl}-5-(p-tolyloxy)benzoic acid] | 120
CN(c1ccc(Cl)cc1)c1ccc(C(=O)c2cc(Oc3ccc(Cl)cc3)cc(C(=O)O)c2)cc1 [8:21, 3-(4-Chlorophenoxy)-5-{4-[(4-chlorophenyl)(methyl)amino]benzoyl}benzoic acid] | 49
CCCCOc1ccc(S(=O)(=O)Nc2cc(C(=O)O)cc(C(=O)c3ccc(Nc4ccc(Cl)cc4)cc3)c2)cc1 [Example 7, 3-(4-Butoxybenzensulfonamido)-5-[4-(4-chlorophenylamino)benzoyl]benzoic acid] | 89

Same assay, conditions: 5 min; total concentration of title compound in the assay 10 μM

Compound | inhibition at 10 µM [%]
CCCCOc1ccc(S(=O)(=O)Nc2cc(C(=O)O)cc(C(=O)c3ccc(Nc4ccc(Cl)cc4)cc3)c2)cc1 [Example 7, 3-(4-Butoxybenzensulfonamido)-5-[4-(4-chlorophenylamino)benzoyl]benzoic acid] | 98
O=C(O)c1cc(Nc2ccc(Cl)cc2)ccc1C(=O)c1ccc(Nc2ccc(Cl)cc2)cc1 [Example 6:1, 5-(4-Chlorophenylamino)-2-[4-(4-chlorophenylamino)benzoyl]benzoic acid] | 96
